Reference: ChEMBL document CHEMBL3046565, “Fungicidal and herbicidal activities of berberine related alkaloids” (2000)

Assays:
Assay type in all cases: functional
Ustilago maydis = assay: Antifungal activity against Ustilago maydis on rice plant at 25 ppm after 24 hr; conditions: Mycosarcoma maydis
Rhizoctonia solani = assay: Antifungal activity against Rhizoctonia solani on rice plant at 25 ppm after 24 hr
[1] = test system: Blumeria graminis f. sp. tritici; assay: Antifungal activity against Blumeria graminis f. sp. tritici on wheat plant assessed as disease control at 100 ppm after 24 hr
Parastagonospora nodorum [2] = assay: Antifungal activity against Phaeosphaeria nodorum on wheat plant at 25 ppm after 24 hr
Parastagonospora nodorum [3] = assay: Antifungal activity against Phaeosphaeria nodorum on wheat plant assessed as disease control at 100 ppm after 24 hr
Pyricularia oryzae = assay: microbe, parasite or virus in culture; conditions: 24 h
Zymoseptoria tritici = assay: Antifungal activity against Zymoseptoria tritici on wheat plant at 25 ppm after 24 hr
[4] = test system: Agrostis stolonifera var. palustris; assay: Herbicidal activity against Agrostis stolonifera var. palustris at 1 ppm after 9 days relative to control
Puccinia recondita = assay: Antifungal activity against Puccinia recondita on wheat plant assessed as disease control at 100 ppm after 24 hr
Lemna minor = assay: Herbicidal activity against Lemna minor (common duckweed) at 1 ppm after 9 days relative to control
Phytophthora infestans = assay: microbe, parasite or virus in culture; conditions: in Oryza sativa, 24 h

CCCCCCc1c2[n+](cc3c(OC)c(OC)ccc13)CCc1cc3c(cc1-2)OCO3.[Cl-]
inhibition at 25 ppm (Ustilago maydis): 0%
inhibition at 25 ppm (Rhizoctonia solani): 0%
Activity [1]: 0%
inhibition at 25 ppm (Parastagonospora nodorum [2]): 0%
Activity (Parastagonospora nodorum [3]): 87%
inhibition at 25 ppm (Pyricularia oryzae): 0%
inhibition at 25 ppm (Zymoseptoria tritici): 100%
Activity [4]: 0%
Activity (Puccinia recondita): 83%
Activity (Lemna minor): 60%
inhibition at 25 ppm (Phytophthora infestans): 0%
